Experimental data: publication PMC314469, “Protein Interaction Networks by Proteome Peptide Scanning” (PLoS Biology, 2004)

Tested on: Myo5 SH3 domain
Experiment: SPOT analysis of cellulose-bound peptides (WISE), Myo5 SH3 domain (Dataset S4)
Type: binding, Saccharomyces cerevisiae
Conditions: for The normalized value in BLU units: Myo5 SH3 domain
[1] = SPOT analysis of membrane-synthesized peptides probed with Myo5 SH3 domain, normalized value
[2] = SPOT analysis of cellulose-bound 14-mer yeast proteome peptides, normalized value, mean where the peptide was synthesized more than once
[3] = SPOT analysis of membrane-bound peptides, normalized value (see methods)
[4] = SPOT analysis of cellulose-bound peptides probed with Myo5 SH3 domain, normalized value

Sequence: KNLLREIPQVPAFQ
- The normalized value in BLU units (SPOT analysis, Myo5 SH3) [1]: 104.1 BLU

Sequence: VAWCHDSPKPPSDR
- The normalized value in BLU units [2]: 30.6 BLU

Sequence: AKSNKVSPEDPAVQ
- The normalized value in BLU units [2]: 371.0 BLU

Sequence: KEVDLTRPSAPSEP
- The normalized value in BLU units [2]: 132.2 BLU

Sequence: EPEPLMSPVPPSSA
- The normalized value in BLU units [2]: 215.2 BLU

Sequence: KRRSKSLPITPKSI
- The normalized value in BLU units [3]: 920.9 BLU

Sequence: KFRQMFKPLAPNTR
- The normalized value in BLU units [2]: 1217.4 BLU

Sequence: IAKLKRKPVVPRLK
- The normalized value in BLU units [3]: 888.5 BLU

Sequence: FLPVFNLPSNPALF
- The normalized value in BLU units (SPOT analysis, Myo5 SH3) [4]: 154.3 BLU

Sequence: VFGTYLGPDAPLSK
- The normalized value in BLU units [2]: 130.5 BLU

Sequence: YGSEKGSPAGPSAV
- The normalized value in BLU units [3]: 50.3 BLU

Sequence: FAYSLGLPGAPKIK
- The normalized value in BLU units (SPOT analysis, Myo5 SH3) [4]: 75.8 BLU

Sequence: LEFSHYAPTAPHVQ
- The normalized value in BLU units (SPOT analysis, Myo5 SH3) [4]: 103.0 BLU

Sequence: MLNSKHYPYIPVAN
- The normalized value in BLU units [3]: 170.8 BLU

Sequence: TELLRIIPEMPKDL
- The normalized value in BLU units [3]: 228.1 BLU

Sequence: KPAGRPIPPAPTHY
- The normalized value in BLU units (SPOT analysis, Myo5 SH3) [1]: 189.4 BLU

Sequence: TLPPLSSPMNPNGH
- The normalized value in BLU units (SPOT analysis, Myo5 SH3) [4]: 252.3 BLU

Sequence: GAPPLPVPNGPAVG
- The normalized value in BLU units (SPOT analysis, Myo5 SH3) [4]: 222.0 BLU

Sequence: VLTVKMSPSLPDEI
- The normalized value in BLU units (SPOT analysis, Myo5 SH3) [1]: 229.5 BLU

Sequence: KLVLRNVPILPILN
- The normalized value in BLU units [3]: 303.3 BLU

Sequence: RPQWLSYPEQPLNS
- The normalized value in BLU units (SPOT analysis, Myo5 SH3) [4]: 241.0 BLU

Sequence: EIKDRDQPAVPPSP
- The normalized value in BLU units (SPOT analysis, Myo5 SH3) [1]: 108.1 BLU

Sequence: IGKSKSAPPIPEDT
- The normalized value in BLU units [2]: 243.5 BLU

Sequence: EFQSKSSPVPPASE
- The normalized value in BLU units (SPOT analysis, Myo5 SH3) [1]: 78.8 BLU

Sequence: NRKQRSIPLSPIVP
- The normalized value in BLU units [3]: 490.7 BLU

Sequence: YLPHMSRPLGPDEV
- The normalized value in BLU units (SPOT analysis, Myo5 SH3) [4]: 172.0 BLU

Sequence: IAKPYVLPFFPLYA
- The normalized value in BLU units [2]: 246.9 BLU

Sequence: DKKKKKYPRKPKKN
- The normalized value in BLU units [3]: 532.3 BLU

Sequence: NLLSLENPVVPSHY
- The normalized value in BLU units (SPOT analysis, Myo5 SH3) [4]: 75.6 BLU

Sequence: LGSEKSCPLAPAVA
- The normalized value in BLU units (SPOT analysis, Myo5 SH3) [1]: 121.9 BLU

Sequence: TIEARVHPEPPNKP
- The normalized value in BLU units [2]: 374.9 BLU

Sequence: FNGDRLVPTLPTVS
- The normalized value in BLU units [3]: 160.6 BLU

Sequence: MASFLPVPEKPNLI
- The normalized value in BLU units [2]: 161.0 BLU

Sequence: IAECLGVPWEPVDL
- The normalized value in BLU units (SPOT analysis, Myo5 SH3) [4]: 142.9 BLU

Sequence: TGYPRYFPQPPVQR
- The normalized value in BLU units [3]: 5858.1 BLU

Sequence: LPLSRVQPVQPSQT
- The normalized value in BLU units (SPOT analysis, Myo5 SH3) [1]: 122.5 BLU

Sequence: SYMDKIYPDLPNDK
- The normalized value in BLU units [3]: 83.0 BLU

Sequence: TPTHHHIPHIPNQN
- The normalized value in BLU units [2]: 147.9 BLU

Sequence: WSQMRMNPTNPDWI
- The normalized value in BLU units (SPOT analysis, Myo5 SH3) [1]: 81.2 BLU

Sequence: MFNLLQKPEQPHQN
- The normalized value in BLU units [2]: 204.0 BLU

Sequence: QSINRSIPSAPYGA
- The normalized value in BLU units [3]: 208.2 BLU

Sequence: LDPGKNTPGLPEET
- The normalized value in BLU units (SPOT analysis, Myo5 SH3) [1]: 155.6 BLU

Sequence: RLIKRLKPPAPKEP
- The normalized value in BLU units (SPOT analysis, Myo5 SH3) [1]: 403.1 BLU

Sequence: HNAAKPIPHVPQAS
- The normalized value in BLU units [2]: 62.3 BLU

Sequence: SANGKFIPSRPAPK
- The normalized value in BLU units [3]: 6758.2 BLU

Sequence: GLMSKLGPNLPASI
- The normalized value in BLU units (SPOT analysis, Myo5 SH3) [1]: 287.3 BLU

Sequence: DFRLHYYPKDPSNV
- The normalized value in BLU units (SPOT analysis, Myo5 SH3) [4]: 77.7 BLU

Sequence: KELNLTGPKVPEDI
- The normalized value in BLU units [2]: 102.4 BLU

Sequence: YGDNKKNPESPESV
- The normalized value in BLU units [3]: 147.1 BLU

Sequence: PDLNKRPPREPIEF
- The normalized value in BLU units (SPOT analysis, Myo5 SH3) [1]: 192.4 BLU

Sequence: TQMKRLKPVSPGLR
- The normalized value in BLU units [3]: 1445.1 BLU

Sequence: ALEERFDPKSPTKR
- The normalized value in BLU units (SPOT analysis, Myo5 SH3) [1]: 108.5 BLU

Sequence: VPDSYKPPKNPIVF
- The normalized value in BLU units [2]: 829.4 BLU

Sequence: KELLLIPPGFPTKN
- The normalized value in BLU units [2]: 122.9 BLU

Sequence: FLSYMSEPKYPSNE
- The normalized value in BLU units [2]: 141.6 BLU

Sequence: ALDNFTLPGTPGFP
- The normalized value in BLU units [2]: 180.7 BLU

Sequence: VPAILMTPICPRSL
- The normalized value in BLU units (SPOT analysis, Myo5 SH3) [4]: 138.1 BLU
